Assay [1] concerns Y&M (yeast and mold). As to the kind of experiment: Yeast and mold (Y&M) count on sprayed seeds, grains and spices (Example 1). The assay is classed as cell-based. Particulars: 40 L/tonne; for Y&M, Av: average; for Y&M, n1: replicate n1; for Y&M, n2: replicate n2. The procedure: (§1) Seeds were mechanically cleaned and spread in stainless steel containers. Each 100 grams seeds were sprayed with 4 ml total solutions descried above via conventional trigger vaporizer. This solution is equivalent to 40 L disinfecting solution total sprayed on 1-tonne seeds. Seeds, grains and spices were selected to represent all families and types of seeds, grains and spices. Another criterium was to select seeds and grains contaminated with a high count of total aerobic bacteria, yeast, mold, E. coli, Salmonella sp. and other pathogenic microorganisms.
(§2) Seeds, grains and spices treated were: • Whole dried pea, • Split pea dried, • Pea fiber, • Vanilla, • Chia, • Sprouted flax and chia, • Flax, • Hemp, and • Black pepper seeds

The subject of assay [2] is Total count Aerobic bacteria. Description: Total aerobic count on seeds, grains and spices sprayed with sanitizing solutions (Example 1). The assay is classed as cell-based. As to conditions: for bactericidal effect, conclusion in words: 40 L per 1 tonne. The procedure:
as §1, §2

Consider `CCO` [2- Alcohol - ethanol, ethanol], for which the “Y&M, Av” value in assay [1] (pea fiber), in assay [1] (whole dried pea) and in assay [1] (whole split pea) was “Y&M not detected” throughout. Moreover, the “Y&M, n1” value is listed as “n1, n2 not detected” in assay [1] (pea fiber); “n1, n2 not detected” in assay [1] (whole dried pea); “n1, n2 not detected” in assay [1] (whole split pea). The “Y&M, n2” value is reported as “n1, n2 not detected” in assay [1] (pea fiber); “n1, n2 not detected” in assay [1] (whole dried pea); “n1, n2 not detected” in assay [1] (whole split pea). Further, the “effect when combined with peracetic acid formulations (synergy), in words” value in assay [2] (black pepper), in assay [2] (hemp), in assay [2] (pea fiber), in assay [2] (split pea), in assay [2] (vanilla) and in assay [2] (whole dried pea) was “synergistic with peracetic acid” each time. Besides, the “bactericidal effect, conclusion in words” value is given as “not a strong bactericidal agent” in assay [2] (black pepper); “not a strong bactericidal agent” in assay [2] (hemp); “not a strong bactericidal agent” in assay [2] (pea fiber); “not a strong bactericidal agent” in assay [2] (split pea); “bactericidal agent but not very strong” in assay [2] (sprouted flax and chia); “not a strong bactericidal agent” in assay [2] (vanilla). In addition, the “bactericidal effect, conclusion in words” value in assay [2] (whole dried pea) was “not a strong bactericidal agent”.
In the case of `CC(=O)OO` [Peracetic acid], the “bactericidal effect, conclusion in words” value in assay [2] (black pepper), in assay [2] (hemp), in assay [2] (pea fiber), in assay [2] (split pea), in assay [2] (vanilla) and in assay [2] (whole dried pea) was “strong bactericidal agent” in each case.

Source of the values: patent publication US20170303554A1, “METHOD OF SANITIZING EDIBLE SEEDS, PARTICULARLY MUCILAGE PRODUCING SEEDS” (AGRI-NEO INC., priority 2014, published 2017).
